The source of these data is PMC11872507, “Lasso peptides sviceucin and siamycin I exhibit anti-virulence activity and restore vancomycin effectiveness in vancomycin-resistant pathogens” (iScience, 2025).

Converted amounts (≈) assume the structure as drawn.

Assay [1] deals with vanYB in E. faecalis V583. Kind of assay: vanYB expression by RT-qPCR. In kind it is cell-based, Enterococcus faecalis. The settings on record: vancomycin 1 μg/mL alone. Here is the method:
(§1) For gelE gene expression measurements, bacteria were cultured in GM17 medium supplemented with the 1:1 water:methanol formulation or either sviceucin at 10 μM, or siamycin I at 1 μM. Cultures were incubated at 37°C until reaching OD600 of 0.5. For vanY gene expression measurements, bacteria were cultured in GM17 medium supplemented with either vancomycin at 1 μg/mL or sviceucin at 10 μM and vancomycin at 1 μg/mL at 37°C to induce the expression of van genes until reaching OD600 of 0.5. Bacteria were recovered by centrifugation at 4200 RCF for 2 min. Once the supernatant was discarded, the pellets were stored at −80°C. Pellets were resuspended in TE buffer or ML lysis buffer, depending on kit used, and transferred in Lysis Matrix B Tubes (MP Biomedicals, USA) before cell lysis with a FastPrep-24 5G (2 × 40 s at 6 m/s, 5 min on ice in-between cycles) (MP Biomedicals, USA). After bead-beating lysis, RNA extraction was performed using Direct-Zol RNA Miniprep kit (Zymo Research, USA) for gelE gene expression measurements or NucleoSpin^Ⓡ miRNA Miniprep kit (Macherey-Nagel, Germany) for vanY gene expression measurements, according to the manufacturers’ instructions. Retrotranscription was performed using QuantiTect Reverse transcription (QIAGEN, Germany). qPCR on cDNA was performed with GoTaq qPCR (Promega, USA). […] Data were analyzed with CFX Manager software (Biorad, USA).

In assay [2] the test system is vanYB in Svic1. Kind of assay: vanYB expression by RT-qPCR. In kind it is cell-based, Enterococcus faecalis. The note with it: vancomycin 1 μg/mL alone. Here is the method:
as §1

Assay [3] has as its system S. aureus 16038 (VISA). Kind of assay: microbe, parasite or virus in culture. The class given is cell-based, Staphylococcus aureus. The settings on record: Staphylococcus aureus, VISA, read-out: Vancomycin MIC.
The subject of assay [4] is Svic1. Kind of assay: Quantification of D-Ala-D-Lac muropeptides by LCMS. The note with it: vancomycin alone, 2 μg/mL; means of at least two biological replicates. The class given is cell-based, Enterococcus faecalis. Here is the method:
(§2) Extraction of muropeptides was performed as previously described[64] with modifications. Bacteria were cultured overnight in GM17 medium supplemented with 2 μg/mL of vancomycin (Merck, USA), 10 μM of sviceucin, or 2 μM of siamycin I. Bacteria were pelleted by centrifugation for 5 min at 10000 rpm and then resuspended in 1 mL of 0.1 M Tris-HCl (pH 6.8), 0.25% SDS. Samples were boiled for 20 min in a heating block (Biolock Scientific, USA) and then centrifuged for 5 min at 10000 rpm. The pellets were washed twice with 1 mL of cold ultrapure water before sonication for 30 min (Branson 1800 Cleaner, USA). 500 μL of DNase 15 μg/mL and RNase 60 μg/mL (Sigma-Aldrich, USA) were added to each sample then incubated at 37°C for 60 min. […] Pellets were resuspended in 12,5 mM sodium phosphate buffer (pH 5.5), then muropeptides concentration was determined and standardized to an OD578 of 3. […]
(§3) LCMS analysis was performed on an ultra-high performance LC system (Ultimate 3000 RSLC, Thermo Scientific, USA) coupled to a high-resolution electrospray ionization-quadrupole-time of flight mass spectrometer (MaXis II ETD, Bruker Daltonics, USA). […] Mass data were analyzed by Data Analysis 4.4 (Bruker Daltonics, USA). For quantification, the m/z corresponding to singly- and doubly-charged species of monomer, as well as doubly- and triply-charged species of dimers of muropeptides were manually searched. […]

In assay [5] the test system is E. faecalis V583. In words: Quantification of D-Ala-D-Lac muropeptides by LCMS. The class given is cell-based, Enterococcus faecalis. The settings on record: vancomycin alone, 2 μg/mL; means of at least two biological replicates. How it is done: as §2, §3
In assay [6] the test system is SiaE. In words: Vancomycin MIC, spontaneous mutants. In kind it is cell-based. The settings on record: Enterococcus faecalis; vancomycin alone; frameshift in ccpA. How it is done:
(§4) The MIC of vancomycin was determined by the microdilution method described in the guidelines of the European Committee on Antimicrobial Susceptibility Testing (EUCAST 2024, v14.0 Breakpoint Tables).[58] For enterococci, GM17 medium was used instead of CAMH medium since enterococci cannot degrade starch, the main carbohydrate of MH medium. 2-fold serial dilutions of the tested antibiotic were performed to obtain concentrations ranging from 0.5 to 512 μg/mL. LP were then added to the wells at the desired concentration. The medium was inoculated with a final inoculum of 5 × 10^5 CFU/mL. The MIC is the lowest concentration that prevents visible in vitro growth.
(§5) Resistant clones to sviceucin were selected by plating bacteria on GM17 agar medium supplemented with vancomycin at 32 μg/mL and sviceucin at 10 μM. Growth and MIC of vancomycin and sviceucin of the resistant clones were tested. The selection for siamycin I resistance was done by performing serial passages of bacteria in GM17 medium supplemented with vancomycin 10 μg/mL and increasing concentrations of siamycin I from 0.5 to 5 μM. Single nucleotide polymorphism (SNPs) analysis was performed on the sequenced gDNA of each selected resistant mutant.

For assay [7], the system named is SiaB. Kind of assay: Vancomycin MIC, spontaneous mutants. The note with it: Enterococcus faecalis; vancomycin alone; CcpA D121V. The class given is cell-based. Here is the method:
as §4, §5

Assay [8] has as its system Svic4. Kind of assay: Vancomycin MIC, spontaneous mutants. The note with it: Enterococcus faecalis; vancomycin alone; atpD RBS modification. The class given is cell-based. How it is done:
as §4, §5

Assay [9] concerns SiaC. In words: Vancomycin MIC, spontaneous mutants. The note with it: Enterococcus faecalis; vancomycin alone; CcpA A148V. In kind it is cell-based. Here is the method: as §4, §5
Assay [10] deals with Svic3. Kind of assay: Vancomycin MIC, spontaneous mutants. The settings on record: Enterococcus faecalis; vancomycin alone; nonsense mutation in atpF. The class given is cell-based. How it is done: as §4, §5
In assay [11] the test system is SiaD. Kind of assay: Vancomycin MIC, spontaneous mutants. In kind it is cell-based. The note with it: Enterococcus faecalis; vancomycin alone; CcpA A89P. How it is done: as §4, §5
For assay [12], the system named is Svic2. Kind of assay: Vancomycin MIC, spontaneous mutants. In kind it is cell-based. The note with it: Enterococcus faecalis; vancomycin alone; nonsense mutation in atpA. Here is the method: as §4, §5

For `CN[C@H](CC(C)C)C(=O)N[C@H]1C(=O)N[C@@H](CC(N)=O)C(=O)N[C@H]2C(=O)N[C@H]3C(=O)N[C@H](C(=O)N[C@H](C(=O)O)c4cc(O)cc(O)c4-c4cc3ccc4O)[C@H](O)c3ccc(c(Cl)c3)Oc3cc2cc(c3O[C@@H]2O[C@H](CO)[C@@H](O)[C@H](O)[C@H]2O[C@H]2C[C@](C)(N)[C@H](O)[C@H](C)O2)Oc2ccc(cc2Cl)[C@H]1O` [Vancomycin], the “vanYB expression induced by vancomycin, in words” value in [1] and in [2] was “strongly induced” each time. Further, the MIC amounted to 4 µg/mL (≈ 2.76 µM) in [3]; 32 µg/mL in [6]; 64 µg/mL (≈ 44.2 µM) in [7]; 256 µg/mL (≈ 177 µM) in assay [8]; 64 µg/mL (≈ 44.2 µM) in assay [9]; 256 µg/mL (≈ 177 µM) in assay [10]. Moreover, the MIC was 64 µg/mL (≈ 44.2 µM) in assay [11] and 256 µg/mL (≈ 177 µM) in assay [12]. In addition, the “percentage of muropeptides D-Ala-D-Lac” value came out at 62.0% in assay [4] and 48.3% in assay [5].
